Measurements taken from patent publication US20220016067A1, “NOVEL ANTI-INFLAMMATORY COMPOUND, PRODUCING METHOD AND USE THEREOF” (priority 2020, published 2022).

Columns and labels:
Format in all cases: cell-based
[1] = tested on: iNOS; assay: LPS-induced iNOS expression in RAW264.7 macrophage cells (Western blot); conditions: LPS 200 ng/ml, PL6 50-400 μM, 24 hours
Protocol: The effect of Pineapplin PL6 on the LPS-induced iNOS expression is tested in RAW264.7 macrophage cells. The iNOS/β-actin ratio is the relative expression level of iNOS and β-actin protein. The higher the expression level of iNOS, the more inflammation response occurred (as an inflammation index). RAW264.7 macrophage cells were pretreated with LPS (200 ng/ml) for 24 hours, then incubated with various concentrations (50, 100, 200 and 400 μM) of PL6 at 5% CO2 and 37° C. for 24 hours. The (−) control group is treated with LPS-free medium, and the (+) control group is treated with PL6-free LPS medium. The cell culture supernatant of each group is collected, then the protein concentration is calculated, and 30 μg of total protein is taken from each group for protein gel electrophoresis. […] The luminescence fluorescence digital analysis system (ImageQuant LAS 400 mini, GE Healthcare Life Sciences) is used for luminescence color development.
The data shown in FIG. 7 is the relative expression of iNOS protein to β-actin, which is calculated by a software, based on the values obtained from the luminescence color film using scanning optical density method and standardized to β-actin protein.

[2] = tested on: NFκB; assay: LPS-induced NFκB expression (p-p65/p65) in RAW264.7 macrophage cells (Western blot); conditions: LPS 200 ng/ml, PL6 50-400 μM, 24 hours
Protocol: In this example, effect of Pineapplin PL6 on the LPS-induced NFκB expression is further tested in the RAW264.7 macrophage cell line. The value of p-p65/p65 is the relative expression level of NFκB protein. The higher the expression level of NFκB, the more inflammation response occurred (as an inflammation index). RAW264.7 macrophage cells were pretreated with LPS (200 ng/ml) for 24 hours, then incubated with various concentrations (50, 100, 200 and 400 μM) of PL6 for 24 hours at a condition of 5% CO2 and 37° C. The (−) control group is treated with LPS-free medium, and the (+) control group is treated with PL6-free LPS medium. The cell culture supernatant of each group is collected, then the protein concentration is calculated, and 30 μg of total protein is taken from each group for protein gel electrophoresis. […] After washing with PBST, the developing agent (Western Chemiluminescent HRP Substrate) is added, and the luminescence fluorescence digital analysis system (ImageQuant LAS 400 mini, GE Healthcare Life Sciences) is used for luminescence color development.
The data shown in FIG. 8 is the relative expression of NFκB protein p-p65/p65, which is calculated by a software, based on the values obtained from the luminescence color film using scanning optical density method and standardized to β-actin protein.

[3] = tested on: RAW264.7 cells; assay: Cytotoxicity test (Alamar blue) in RAW264.7 cells; conditions: 25, 50, 100, 200, 400 and 800 μM, 24 hours
Protocol: RAW264.7 cells are cultured in RPMI medium containing 10% fetal bovine serum, 0.2% sodium bicarbonate and 1% penicillin/streptomycin, and in a 5% CO2, 37° C. incubator. The cells are subcultured when a confluency of 70-80% is reached. RAW264.7 cells are inoculated in a 96-well plate at a density of 4×10^4 cells/well per well. After the cells are adhered for overnight incubation, Pineapplin PL6 at different concentrations (25, 50, 100, 200, 400 and 800 μM) or pineapple extract (3, 6, 12 mg/ml) is added to each well. The blank control group is treated with culture medium without the Pineapplin PL6 or pineapple extract After 24 hours of incubation, Alamar blue is used to test cytotoxicity of the Pineapplin PL6. The medium is removed, washed twice with PBS, and diluted 10 times with Alamar Blue reagent in the medium without FBS. After reaction in dark for 6 hours, the change in absorbance at a wavelength of 570 nm is measured by using an ELISA reader.

[4] = tested on: nitric oxide production induced by LPS in RAW264.7 macrophages; assay: LPS-induced NO production in RAW264.7 macrophages (Griess reagent); conditions: 200 μM and 400 μM, LPS 200 ng/ml, RAW264.7, 24 hours
Protocol: RAW264.7 cells are inoculated in a 96-well plate at a density of 4×10^5 cells/well. After the cells are adhered overnight, 200 ng/ml LPS is added, the blank control group has no LPS added, and incubated at 5% CO2 and 37° C. for 24 hours. On the second day, different concentrations (50, 100, 200 and 400 μM) of Pineapplin PL6 are added to the wells. The blank control group is treated with LPS-free medium, and the blank control group is treated with PL6-free LPS medium. The cells are then cultured under the condition of 5% CO2 and 37° C. After 24 hours of incubation, 150 μl of medium for each group is collected.
A solution of 1% p-aminobenzene sulfonic acid dissolved in 5% phosphoric acid is prepared, and then mixed with 0.1% N-(1-naphthyl)ethylenediamine dihydrochloride at a ratio of 1:1 to form the Griess reagent. Solutions of sodium nitrite at concentrations of 1.5625 μM to 100 μM are prepared for making a standard curve. 150 μl of the collected medium is mixed with 50 μl of the Griess reagent, and reacted in a dark environment for 30 minutes. The change in absorbance at a wavelength of 555 nm is measured using an ELISA reader.

1,2,3-tricarboxylic acid-propyl-3-hydroxyphenol acrylate [Pineapplin PL6]
iNOS protein expression (iNOS/β-actin) [1]: inhibiting iNOS protein expression | NFκB protein expression (p-p65/p65) [2]: inhibiting NFκB protein expression | cytotoxicity to RAW264.7 cells [3]: no obvious cytotoxicity | production of nitric oxide induced by LPS [4]: significantly reduces
